# Where two headings read alike, the source gives them in different places.
# Legend:
# MRSA = assay: MIC by broth microdilution with 0.002% polysorbate-80, baseline isolates of MITT population; type: cell-based; conditions: Staphylococcus aureus; MRSA subset
# Method: (§1) Blood and infection site cultures were obtained within three days of enrollment (often done at the time of enrollment). End-of-therapy, TOC, and late follow-up (or at early relapse) cultures were obtained from the infection site if clinically indicated. […] Specimens were cultured and pathogens were identified at each investigative site's certified laboratory. All isolated gram-positive pathogen(s) that were obtained from the infection site at baseline/randomization and up to and including the TOC time point were subcultured and sent to a central laboratory (Covance Clinical Laboratories, Indianapolis, Ind.) for confirmatory identification and susceptibility testing. In cases of discrepancy between the local and the central laboratory, central laboratory results were used.
# (§2) At least one gram-positive organism was isolated from the infection site at baseline in 209 patients (69.2%) in the ITT population. The most commonly isolated pathogen was S. aureus, which was isolated from 87.6% (183/209) of MITT patients. MRSA was isolated in 49% (103/209) of MITT patients. The other three most common pathogens identified in the MITT population were Streptococcus pyogenes (5.7%, 12/209), Streptococcus agalactiae (3.8%, 8/209) and Enterococcus faecalis (3.8%, 8/209). The range of oritavancin minimum inhibitory concentrations (MICs) for S. aureus in the MITT population, as assessed using broth microdilution with 0.002% polysorbate-80, was 0.008 to 0.5 μg/mL.
# MSSA = assay: as above; type: cell-based; conditions: Staphylococcus aureus; MSSA subset
# Method: as §1, §2
# S. aureus = assay: as above; type: cell-based; conditions: Staphylococcus aureus; all S. aureus
# Method: as §1, §2
# clinical = type: in vivo, human
# Method: A pharmacokinetic (PK) analysis was conducted of oritavancin from patients having complicated skin and skin structure infections (cSSSI) or bacteremia. The population for the analysis consisted of oritavancin-treated subjects and patients from 12 studies, consisting of nine Phase 1 studies, two Phase 2 studies, and one Phase 2/3 study. Oritavancin was administered as both single- and multiple-dose intravenous (IV) infusions in fixed doses ranging from 100 to 800 mg or weight-based doses ranging from 0.02 to 10 mg/kg.
# Results: The final analysis population contained data from a total of 560 subjects: 200 from the Phase 1 studies, 86 from the Phase 2 bacteremia study, 29 from the Phase 2 cSSSI study, and 245 from the Phase 2/3 cSSSI study. The final pharmacokinetic analysis dataset contained a total of 6,336 oritavancin plasma concentrations, collected from these 560 subjects, of which 6,290 oritavancin concentrations were included in the results. The majority of subjects (>90%) contributed at least six samples to the population pharmacokinetic analysis.
# A wide range of oritavancin doses was administered across the studies included in the population PK analysis, where 42% (236 of 560) of subjects received ≧400 mg, while 25% (142 of 560) received 800 mg or more. A histogram of the oritavancin doses administered is shown in FIG. 6, with midpoint values for each dose range shown over each bar. The duration over which oritavancin was infused ranged from 0.13 to 6.5 hr across all studies; however, oritavancin was administered over 1 hr for the majority of subjects. Histograms of the actual infusion durations and rates are shown in FIGS. 7 and 8, respectively, with midpoint values shown for each infusion duration or rate over each bar.
# The final structural PK model for oritavancin in this analysis was a three-compartment model (one central, two peripheral) with a zero-order intravenous infusion rate and first-order, linear elimination. The model fit the data well (data not shown), regardless of the observed concentration or administered dose. If a nonlinear model had been necessary, there would have been significant bias in the weighted residuals at the lowest and/or highest concentrations and/or doses. No trends for decreasing CL with increasing dose were found.
structure (smiles),measurement,setting,value
"CN[C@H](CC(C)C)C(=O)N[C@H]1C(=O)N[C@@H](CC(N)=O)C(=O)N[C@H]2C(=O)N[C@H]3C(=O)N[C@H](C(=O)N[C@H](C(=O)O)c4cc(O)cc(O)c4-c4cc3ccc4O)[C@H](O[C@H]3C[C@](C)(N)[C@@H](O)[C@H](C)O3)c3ccc(c(Cl)c3)Oc3cc2cc(c3O[C@@H]2O[C@H](CO)[C@@H](O)[C@H](O)[C@H]2O[C@H]2C[C@](C)(NCc3ccc(-c4ccc(Cl)cc4)cc3)[C@@H](O)[C@H](C)O2)Oc2ccc(cc2Cl)[C@H]1O [Oritavancin, N-(4-(4-chlorophenyl)benzyl)A82846B]",MIC90,MRSA,0.12 µg/mL
same,MIC90,MSSA,0.12 µg/mL
same,MIC90,S. aureus,0.12 µg/mL
same,"Cmin, Mean",clinical; 180-330 mg/day (n = 140),2.58 µg/mL
same,"Cmin, Median",clinical; 180-330 mg/day (n = 140),2.20 µg/mL
same,"Cmin, Mean",clinical; <180 mg/day (n = 181),1.17 µg/mL
same,"Cmin, Median",clinical; <180 mg/day (n = 181),0.949 µg/mL
same,"Cmin, Mean",clinical; >330 mg/day (n = 239),12.5 µg/mL
same,"Cmin, Median",clinical; >330 mg/day (n = 239),11.0 µg/mL
same,Vc,"clinical; healthy subjects, Multiple Dose (n = 109)",5.10 L
same,Cmin,"clinical; healthy subjects, Multiple Dose (n = 109), normalized to a dose of 200 mg, after a median of 4 (2-14) days",11.5 µg/mL
same,Vc,"clinical; healthy subjects, Single Dose (n = 91)",5.30 L
same,Cmin,"clinical; healthy subjects, Single Dose (n = 91), normalized to a dose of 200 mg",3.30 µg/mL
same,Plasma half-life,"clinical; human, in vivo",prolonged
same,AUC(0-t),"clinical; human, in vivo, 200 mg, healthy subjects, Multiple Dose (n = 109), normalized to a dose of 200 mg, after a median of 4 (2-14) days, read-out: AUC0-24",459 µg·h/mL
same,Cmax,"clinical; human, in vivo, 200 mg, healthy subjects, Multiple Dose (n = 109), normalized to a dose of 200 mg, after a median of 4 (2-14) days, read-out: Cmax",46800 ng/mL
same,AUC(0-t),"clinical; human, in vivo, 200 mg, healthy subjects, Single Dose (n = 91), normalized to a dose of 200 mg, read-out: AUC0-24",216 µg·h/mL
same,Cmax,"clinical; human, in vivo, 200 mg, healthy subjects, Single Dose (n = 91), normalized to a dose of 200 mg, read-out: Cmax",33900 ng/mL
same,AUC(0-t),"clinical; human, in vivo, 180-330 mg/day (n = 140), read-out: AUC0-24, Mean",181 µg·h/mL
same,AUC(0-t),"clinical; human, in vivo, 180-330 mg/day (n = 140), read-out: AUC0-24, Median",171 µg·h/mL
same,clearance,"clinical; human, in vivo, 180-330 mg/day (n = 140), read-out: CL, Mean (converted)",9.57 mL/min
same,clearance,"clinical; human, in vivo, 180-330 mg/day (n = 140), read-out: CL, Median (converted)",9.07 mL/min
same,Cmax,"clinical; human, in vivo, 180-330 mg/day (n = 140), read-out: Cmax, Mean",33400 ng/mL
same,Cmax,"clinical; human, in vivo, 180-330 mg/day (n = 140), read-out: Cmax, Median",30000 ng/mL
same,half-life,"clinical; human, in vivo, 180-330 mg/day (n = 140), read-out: T1/2, α, Mean (converted)",128 min
same,half-life,"clinical; human, in vivo, 180-330 mg/day (n = 140), read-out: T1/2, α, Median (converted)",128 min
same,half-life,"clinical; human, in vivo, 180-330 mg/day (n = 140), read-out: T1/2, β, Mean (converted)",1780 min
same,half-life,"clinical; human, in vivo, 180-330 mg/day (n = 140), read-out: T1/2, β, Median (converted)",1760 min
same,half-life,"clinical; human, in vivo, 180-330 mg/day (n = 140), read-out: T1/2, γ, Mean (converted)",22600 min
same,half-life,"clinical; human, in vivo, 180-330 mg/day (n = 140), read-out: T1/2, γ, Median (converted)",22400 min
same,AUC(0-t),"clinical; human, in vivo, <180 mg/day (n = 181), read-out: AUC0-24, Mean",90 µg·h/mL
same,AUC(0-t),"clinical; human, in vivo, <180 mg/day (n = 181), read-out: AUC0-24, Median",73.6 µg·h/mL
same,clearance,"clinical; human, in vivo, <180 mg/day (n = 181), read-out: CL, Mean (converted)",9.3 mL/min
same,clearance,"clinical; human, in vivo, <180 mg/day (n = 181), read-out: CL, Median (converted)",9.17 mL/min
same,Cmax,"clinical; human, in vivo, <180 mg/day (n = 181), read-out: Cmax, Mean",17800 ng/mL
same,Cmax,"clinical; human, in vivo, <180 mg/day (n = 181), read-out: Cmax, Median",14300 ng/mL
same,half-life,"clinical; human, in vivo, <180 mg/day (n = 181), read-out: T1/2, α, Mean (converted)",121 min
same,half-life,"clinical; human, in vivo, <180 mg/day (n = 181), read-out: T1/2, α, Median (converted)",118 min
same,half-life,"clinical; human, in vivo, <180 mg/day (n = 181), read-out: T1/2, β, Mean (converted)",1640 min
same,half-life,"clinical; human, in vivo, <180 mg/day (n = 181), read-out: T1/2, β, Median (converted)",1650 min
same,half-life,"clinical; human, in vivo, <180 mg/day (n = 181), read-out: T1/2, γ, Mean (converted)",22600 min
same,half-life,"clinical; human, in vivo, <180 mg/day (n = 181), read-out: T1/2, γ, Median (converted)",23200 min
same,AUC(0-t),"clinical; human, in vivo, >330 mg/day (n = 239), read-out: AUC0-24, Mean",750 µg·h/mL
same,AUC(0-t),"clinical; human, in vivo, >330 mg/day (n = 239), read-out: AUC0-24, Median",712 µg·h/mL
same,clearance,"clinical; human, in vivo, >330 mg/day (n = 239), read-out: CL, Mean (converted)",7.35 mL/min
same,clearance,"clinical; human, in vivo, >330 mg/day (n = 239), read-out: CL, Median (converted)",6.68 mL/min
same,Cmax,"clinical; human, in vivo, >330 mg/day (n = 239), read-out: Cmax, Mean",106000 ng/mL
same,Cmax,"clinical; human, in vivo, >330 mg/day (n = 239), read-out: Cmax, Median",105000 ng/mL
same,half-life,"clinical; human, in vivo, >330 mg/day (n = 239), read-out: T1/2, α, Mean (converted)",147 min
same,half-life,"clinical; human, in vivo, >330 mg/day (n = 239), read-out: T1/2, α, Median (converted)",141 min
same,half-life,"clinical; human, in vivo, >330 mg/day (n = 239), read-out: T1/2, β, Mean (converted)",1880 min
same,half-life,"clinical; human, in vivo, >330 mg/day (n = 239), read-out: T1/2, β, Median (converted)",1760 min
same,half-life,"clinical; human, in vivo, >330 mg/day (n = 239), read-out: T1/2, γ, Mean (converted)",21200 min
same,half-life,"clinical; human, in vivo, >330 mg/day (n = 239), read-out: T1/2, γ, Median (converted)",20800 min
same,clearance,"clinical; human, in vivo, healthy subjects, Multiple Dose (n = 109), read-out: CL (converted)",5.15 mL/min
same,half-life,"clinical; human, in vivo, healthy subjects, Multiple Dose (n = 109), read-out: T1/2, α (converted)",169 min
same,half-life,"clinical; human, in vivo, healthy subjects, Multiple Dose (n = 109), read-out: T1/2, β (converted)",1980 min
same,half-life,"clinical; human, in vivo, healthy subjects, Multiple Dose (n = 109), read-out: T1/2, γ (converted)",19200 min
same,clearance,"clinical; human, in vivo, healthy subjects, Single Dose (n = 91), read-out: CL (converted)",6.7 mL/min
same,half-life,"clinical; human, in vivo, healthy subjects, Single Dose (n = 91), read-out: T1/2, α (converted)",135 min
same,half-life,"clinical; human, in vivo, healthy subjects, Single Dose (n = 91), read-out: T1/2, β (converted)",1190 min
same,half-life,"clinical; human, in vivo, healthy subjects, Single Dose (n = 91), read-out: T1/2, γ (converted)",19000 min

# Reference: patent US8420592B2, “Methods of treatment using single doses of oritavancin” (The Medicines Company, priority 2008, dated 2013)
